The results in this text go back to ChEMBL document CHEMBL3585242, “Pyridine Nucleosides Neopetrosides A and B from a Marine Neopetrosia sp. Sponge. Synthesis of Neopetroside A and Its β-Riboside Analogue” (J Nat Prod, 2015).

Series [1] relates to C2C12. Briefly: Cytotoxicity against mouse C2C12 cells assessed as cell viability up to 100 uM after 24 hrs by CellTox green assay. It counts as cell-based. Conditions: c2c12, 24 h.
For series [2], the system named is C2C12. Briefly: Upregulation of mitochondrial function in mouse C2C12 cells assessed as increase in mitochondrial ATP level at 10 uM after 1 hr by ToxGlo assay relative to control. It counts as functional, cell-based.
Series [3] relates to C2C12. Briefly: Upregulation of mitochondrial function in mouse C2C12 cells assessed as increase in mitochondrial oxygen consumption rate at 10 uM after 1 hr relative to control. In kind it is functional, cell-based.

The source made the active and inactive calls. The rule behind the calls is not given here.

On to `O=C([O-])c1ccc[n+]([C@H]2O[C@H](COC(=O)c3ccc(O)cc3)[C@@H](O)[C@H]2O)c1`, for which the Activity entry with C2C12 [1] is “Non-toxic”. In addition, the outcome in the series on C2C12 [2] and in the series on C2C12 [3] was Active.
